As a reminder, the IC50 is the concentration that gives 50% inhibition. One may read the melting point as the temperature, or range, at which the solid turns liquid. Usually DC50 stands for the concentration giving 50% degradation.

This note sets out measurements from article PMC10671693, “Design, Synthesis, and Antitumor Activity Evaluation of Proteolysis-Targeting Chimeras as Degraders of Extracellular Signal-Regulated Kinases 1/2” (International Journal of Molecular Sciences, 2023).

The subject of one data set is A375 cells. Briefly: Cell proliferation (CCK8) assay, A375. The following applies: Homo sapiens, A-375, A375, 72 h, read-out: IC50 (growth inhibition, cytotoxicity). The data set is classed as cell-based. Here is the method:
(§1) A375, HCT116, Calu-6, and B16-F10 cells were purchased from American Type Culture Collection (ATCC) and cultured in DMEM high glucose media (SH30022.01, Cytiva, Shanghai, China) supplemented with 10% fetal bovine serum (10099-144, Gibco, Carlsbad, CA, USA) and 1% penicillin/streptomycin (Solarbio, Beijing, China) in an incubator at 37 °C with 5% CO2.
(§2) A 96-well plate (3599, Corning, New York, NY, USA) was inoculated with 100 μL of complete medium containing 10,000 cells, and the experimental, control, and blank groups were established. Three parallel wells were used per concentration. After 10 h, the media from the experimental and control groups were replaced with a compound containing the indicated concentration of the complete medium. Cells were incubated for 72 h before 10 μL of CCK8 reagent (CA1210, Solarbio, Beijing, China) was added to each well and incubated for 1 h. Using a microplate reader (Tecan, Mannendorf, Switzerland), the absorbance at 450 nm was measured. The IC50 values were determined using GraphPad Prism 8 and nonlinear regression curve fitting.

The subject of the next data set is HCT116 cells. Briefly: Cell proliferation (CCK8) assay, HCT116. The data set is classed as cell-based, human. The following applies: Homo sapiens, HCT-116, 72 h, HCT116, 72 h, read-out: IC50 (growth inhibition, cytotoxicity). Here is the method: as §1, §2
The next data set deals with Calu-6 cells. Briefly: Cell proliferation (CCK8) assay, Calu-6. The following applies: Homo sapiens, Calu-6, 72 h, read-out: IC50 (growth inhibition, cytotoxicity). The data set is classed as cell-based. The protocol: as §1, §2
For the next data set, the system named is HCT116 tumor. Briefly: HCT116 subcutaneous xenograft model in nude mice. The class given is in vivo. The note with it: mouse, in vivo. The protocol:
Male BALB/c nude mice of around 8 weeks old were purchased from Charles River (Beijing, China). Nude mice were raised in SPF-grade animal rooms and had access to water and food ad libitum. HCT116 colorectal cancer cells were grown in DMEM supplemented with 10% fetal calf serum and 1% penicillin/streptomycin under standard cell culture conditions. HCT116 xenografts were prepared by subcutaneously injecting 5× 10^6 cells suspended in PBS into the right flank of each male BALB/c nude mouse. Tumor growth was monitored via caliper measurement, and volume was calculated using the following equation: 0.5 × max (length/width) × min (length/width) × min (length/width). When the tumors reached an average of approximately 100 mm^3, the mice were randomized into groups of five. The mice were injected intraperitoneally once a day at doses of 6, 12, 25 mg/kg compound B1-10J and 25 mg/kg 5-FU. Body weights and tumor volumes were measured every 2–3 days. All studies were appropriately statistically powered.

The subject of a further data set is ERK1/2. Briefly: Western blot ERK1/2 protein degradation assay in A375 cells. The note with it: 48 h; for ERK1/2 degradative activity (in words): Western blot; for DC50: Western blotting and grayscale quantification; for DCmax: Western blot with grayscale quantification. The class given is cell-based, human. The protocol: as §1
Cells were cultured under the indicated conditions as described in “Cell culture”. Cells were seeded in 6-well plates (3516, Corning, New York, NY, USA). Compounds were dissolved in DMSO for storage (10 mM). Following compound treatment, cells were washed with PBS, scraped from the plate, and lysed using cell lysis buffer (Applygen, Beijing, China). After the protein in the cell lysate was quantified via the BCA quantification method, the samples were placed in a metal bath at 100 °C and heated for 5 min. Cell lysates were separated using a 10% SDS–PAGE gel and transferred to PVDF membranes (Merck Millipore, Burlington, MA, USA). The PVDF membrane was blocked with 5% nonfat dry milk in TBST for one hour. The PVDF membrane was transferred to the antibody diluent and incubated overnight at 4 °C. PVDF membranes were washed three times with TBST for 5 min each and then incubated with the appropriate HRP-conjugated secondary antibody for 1 h at room temperature. After washing three more times with TBST, the PVDF membrane was stained with a hypersensitive ECL chemiluminescence reagent (Biodragon, Beijing, China) and then imaged with Tanon 5200. Grayscale quantitative analysis was performed using ImageJ software. Statistical analysis was performed using GraphPad Prism 8. DC50 and Dmax values were fitted using a four-parameter [inhibitor] versus response and reported directly from the Prism output. Mean ± SD and unpaired t tests were performed in GraphPad Prism.

Entries after “also recorded” stand apart in the source; their conditions may differ.

As for `CNCCC#Cc1cc(Nc2ncc(C)c(-c3cc4n(c3)C[C@@H](C)N(Cc3cccc(C)n3)C4=O)n2)ccn1` [B-J], the IC50 is 16.8 ± 3 µM in the data set with A375 cells, 17.8 ± 3.9 µM in the data set with HCT116 cells and 6.5 ± 1.3 µM in the data set on Calu-6 cells.

Regarding `O=c1[nH]cc(F)c(=O)[nH]1` [Compound 5-FU, 5-fluorouracil, reference compound], the “body weight / tolerability” value in the data set with HCT116 tumor is reported as “trend of weight loss”.

In the case of `Cc1cccc(CN2C(=O)c3cc(-c4nc(Nc5ccn(CCCCNC(=O)CCCCCCCCCNc6cccc7c6C(=O)N(C6CCC(=O)NC6=O)C7=O)n5)ncc4C)cn3C[C@H]2C)n1` (stereo partly shown) [Compound B1-10BZ], in the data set with ERK1/2, the “ERK1/2 degradative activity (in words)” value is listed as “degradative activity disappeared; also recorded: no degradative activity was observed”.

Regarding `Cc1cccc(CN2C(=O)c3cc(-c4nc(Nc5cccc(C#CCCNC(=O)CCCCCCCCCNc6cccc7c6C(=O)N(C6CCC(=O)NC6=O)C7=O)c5)ncc4C)cn3C[C@H]2C)n1` (stereo partly shown) [Compound B1-10B], in the data set on ERK1/2, the “ERK1/2 degradative activity (in words)” value was “no degradative activity was observed”.

On to `Cc1cccc(CN2C(=O)c3cc(-c4nc(Nc5ccnc(NCCCNC(=O)CCCCCCCCCNc6cccc7c6C(=O)N(C6CCC(=O)NC6=O)C7=O)c5)ncc4C)cn3C[C@H]2C)n1` (stereo partly shown) [Compound B1-10N], for which the melting point lay within 110 to 111 °C. Also, the “ERK1/2 degradative activity (in words)” value in the data set with ERK1/2 was “degradative activity disappeared”.

Consider `Cc1cccc(CN2C(=O)c3cc(-c4nc(Nc5ccnc(C#CCCN6CCN(CCCCCCCCNc7cccc8c7C(=O)N(C7CCC(=O)NC7=O)C8=O)CC6)c5)ncc4C)cn3C[C@H]2C)n1` (stereo partly shown) [Compound B1-10P], for which the “ERK1/2 degradative activity (in words)” value in the data set with ERK1/2 is recorded as “slightly increased DC50; also recorded: effective ERK1/2 degraders”. In the data set with ERK1/2, this compound yielded a DC50 of 0.616 ± 0.389 µM. For the same compound, the values for the IC50 with A375 cells, in the data set on HCT116 cells and in the data set with Calu-6 cells were greater than 30 µM, 2.2 ± 0.6 µM and greater than 30 µM, respectively.

As to `Cc1cccc(CN2C(=O)c3cc(-c4nc(Nc5ccnc(C#CCCNC(=O)CCCCCCCCCNc6cccc7c6C(=O)N(C6CCC(=O)NC6=O)C7=O)c5)ncc4C)cn3C[C@H]2C)n1` (stereo partly shown) [Compound B1-10], in the data set with ERK1/2, the “ERK1/2 degradative activity (in words)” value is “effective ERK1/2 degraders”, the DCmax result is recorded as “exceeding 65%” and the DC50 came out at 0.333 ± 0.169 µM. In addition, in the data set with A375 cells, the IC50 is greater than 30 µM. Moreover, the IC50 in the data set on HCT116 cells was greater than 30 µM. The IC50 with Calu-6 cells was greater than 30 µM.

With `Cc1cccc(CN2C(=O)c3cc(-c4nc(Nc5ccnc(C#CCCNC(=O)CCCCCCCCC(=O)N[C@H](C(=O)N6C[C@H](O)C[C@H]6C(=O)N[C@@H](C)c6ccc(-c7scnc7C)cc6)C(C)(C)C)c5)ncc4C)cn3C[C@H]2C)n1` [Compound B2-10], the melting point lay in the range of 144 to 145 °C. Moreover, in the data set with ERK1/2, the “ERK1/2 degradative activity (in words)” value is listed as “effective ERK1/2 degraders” and the DC50 amounted to 0.699 ± 0.361 µM.

Turning to `Cc1cccc(CN2C(=O)c3cc(-c4nc(Nc5ccnc(C#CCCN(C)CCCCCCCCCCCC(=O)N[C@H](C(=O)N6C[C@H](O)C[C@H]6C(=O)N[C@@H](C)c6ccc(-c7scnc7C)cc6)C(C)(C)C)c5)ncc4C)cn3C[C@H]2C)n1` [Compound B2-12J], the “ERK1/2 degradative activity (in words)” value in the data set on ERK1/2 is “lost its degradative activity”.

`Cc1cccc(CN2C(=O)c3cc(-c4nc(Nc5ccnc(C#CCCN6CCN(CCCCCCCCCC(=O)N[C@H](C(=O)N7C[C@H](O)C[C@H]7C(=O)N[C@@H](C)c7ccc(-c8scnc8C)cc7)C(C)(C)C)CC6)c5)ncc4C)cn3C[C@H]2C)n1` [Compound B2-12P] came in with a melting point of 145 to 146 °C. In addition, in the data set on ERK1/2, the “ERK1/2 degradative activity (in words)” value is “significantly increased DC50 value” and half-maximal degradation (DC50) was put at 3.8 ± 1.82 µM.

Compound `Cc1cccc(CN2C(=O)c3cc(-c4nc(Nc5ccnc(C#CCCNC(=O)CCCCCCCCCCC(=O)N[C@H](C(=O)N6C[C@H](O)C[C@H]6C(=O)N[C@@H](C)c6ccc(-c7scnc7C)cc6)C(C)(C)C)c5)ncc4C)cn3C[C@H]2C)n1` [Compound B2-12] displayed a melting point of 143 to 144 °C. In the data set on ERK1/2, the “ERK1/2 degradative activity (in words)” value was “effective ERK1/2 degraders”, the DCmax result was “exceeding 65%” and the 50% degradation concentration (DC50) came out at 0.383 ± 0.208 µM. The IC50 in the data set with A375 cells was 7.5 ± 6.1 µM. Besides, the IC50 in the data set on HCT116 cells was determined as 11.7 ± 10.5 µM. The IC50 in the data set on Calu-6 cells is greater than 30 µM.

`Cc1cccc(CN2C(=O)c3cc(-c4nc(Nc5ccnc(C#CCCNC(=O)CCCCCCCCCCCCC(=O)N[C@H](C(=O)N6C[C@H](O)C[C@H]6C(=O)N[C@@H](C)c6ccc(-c7scnc7C)cc6)C(C)(C)C)c5)ncc4C)cn3C[C@H]2C)n1` [Compound B2-14]: the melting point is 128 to 129 °C. Besides, in the data set with ERK1/2, the “ERK1/2 degradative activity (in words)” value is on record as “effective ERK1/2 degraders”, the DCmax entry is given as “exceeding 65%” and the DC50 worked out at 0.307 ± 0.191 µM.
